# According to PubChem BioAssay (NCI):
#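 Method: 48-hour compound exposure of cells in 96-well plates, five concentrations, linear interpolation of endpoints. Definition used: TGI = concentration required for complete inhibition of growth.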
# Experiments:
# Test in all cases: inhibition of tumour cell growth, NCI panel, 48 h
# HT29 colon = tested on: HT29 colon
# HCC-2998 colon = tested on: HCC-2998 colon
# HOP-62 NSCLC = tested on: HOP-62 NSCLC
# K-562 leukemia = tested on: K-562 leukemia
# MCF7 breast = tested on: MCF7 breast
# MALME-3M melanoma = tested on: MALME-3M melanoma
# SK-MEL-28 melanoma = tested on: SK-MEL-28 melanoma
# UACC-257 melanoma = tested on: UACC-257 melanoma
# IGROV1 ovarian = tested on: IGROV1 ovarian
# U251 CNS = tested on: U251 CNS
# KM12 colon = tested on: KM12 colon
# A498 renal = tested on: A498 renal
# OVCAR-8 ovarian = tested on: OVCAR-8 ovarian
# NCI-H226 lung = tested on: NCI-H226 lung
# RXF 393 renal = tested on: RXF 393 renal
# SK-OV-3 ovarian = tested on: SK-OV-3 ovarian
# BT-549 breast = tested on: BT-549 breast
# SR leukemia = tested on: SR leukemia
# OVCAR-3 ovarian = tested on: OVCAR-3 ovarian
# UACC-62 melanoma = tested on: UACC-62 melanoma
# COLO 205 colon = tested on: COLO 205 colon
# MDA-MB-435 = tested on: MDA-MB-435
# NCI/ADR-RES ovarian = tested on: NCI/ADR-RES ovarian
# HCT-15 colon = tested on: HCT-15 colon
# MDA-N = tested on: MDA-N
# MOLT-4 leukemia = tested on: MOLT-4 leukemia
# CCRF-CEM leukemia = tested on: CCRF-CEM leukemia
# OVCAR-5 ovarian = tested on: OVCAR-5 ovarian
# SK-MEL-5 melanoma = tested on: SK-MEL-5 melanoma
# DU-145 prostate = tested on: DU-145 prostate
# T-47D breast = tested on: T-47D breast
# EKVX NSCLC = tested on: EKVX NSCLC
# NCI-H522 lung = tested on: NCI-H522 lung
# A549 NSCLC = tested on: A549 NSCLC
# OVCAR-4 ovarian = tested on: OVCAR-4 ovarian
# UO-31 renal = tested on: UO-31 renal
# SF-295 CNS = tested on: SF-295 CNS
# TK-10 renal = tested on: TK-10 renal
# PC-3 prostate = tested on: PC-3 prostate
# SNB-19 CNS = tested on: SNB-19 CNS
# SK-MEL-2 melanoma = tested on: SK-MEL-2 melanoma
# HS 578T breast = tested on: HS 578T breast
# HCT-116 colon = tested on: HCT-116 colon
# 786-0 renal = tested on: 786-0 renal
# ACHN renal = tested on: ACHN renal
# RPMI-8226 leukemia = tested on: RPMI-8226 leukemia
# M14 melanoma = tested on: M14 melanoma
# HL-60(TB) leukemia = tested on: HL-60(TB) leukemia
# NCI-H23 lung = tested on: NCI-H23 lung
# MDA-MB-231 breast = tested on: MDA-MB-231 breast
# SN12C renal = tested on: SN12C renal
# SF-268 CNS = tested on: SF-268 CNS
# SF-539 CNS = tested on: SF-539 CNS
# SW-620 colon = tested on: SW-620 colon
# LOX IMVI melanoma = tested on: LOX IMVI melanoma
# SNB-75 CNS = tested on: SNB-75 CNS
# CAKI-1 renal = tested on: CAKI-1 renal
# NCI-H460 lung = tested on: NCI-H460 lung
structure (smiles),measurement,setting,value
CCn1c(SCC(=O)NNC(=S)Nc2ccc(C)cc2)nc2ccccc2c1=O,TGI,HT29 colon,> 100 µM
same,TGI,HCC-2998 colon,> 100 µM
same,TGI,HOP-62 NSCLC,> 100 µM
same,TGI,K-562 leukemia,> 100 µM
same,TGI,MCF7 breast,> 100 µM
same,TGI,MALME-3M melanoma,> 100 µM
same,TGI,SK-MEL-28 melanoma,> 100 µM
same,TGI,UACC-257 melanoma,> 100 µM
same,TGI,IGROV1 ovarian,> 100 µM
same,TGI,U251 CNS,> 100 µM
same,TGI,KM12 colon,> 100 µM
same,TGI,A498 renal,> 100 µM
same,TGI,OVCAR-8 ovarian,> 100 µM
same,TGI,NCI-H226 lung,> 100 µM
same,TGI,RXF 393 renal,> 100 µM
same,TGI,SK-OV-3 ovarian,> 100 µM
same,TGI,BT-549 breast,> 100 µM
same,TGI,SR leukemia,> 100 µM
same,TGI,OVCAR-3 ovarian,> 100 µM
same,TGI,UACC-62 melanoma,> 100 µM
same,TGI,COLO 205 colon,> 100 µM
same,TGI,MDA-MB-435,> 100 µM
same,TGI,NCI/ADR-RES ovarian,> 100 µM
same,TGI,HCT-15 colon,> 100 µM
same,TGI,MDA-N,> 100 µM
same,TGI,MOLT-4 leukemia,> 100 µM
same,TGI,CCRF-CEM leukemia,> 100 µM
same,TGI,OVCAR-5 ovarian,> 100 µM
same,TGI,SK-MEL-5 melanoma,> 100 µM
same,TGI,DU-145 prostate,> 100 µM
same,TGI,T-47D breast,> 100 µM
same,TGI,EKVX NSCLC,> 100 µM
same,TGI,NCI-H522 lung,> 100 µM
same,TGI,A549 NSCLC,> 100 µM
same,TGI,OVCAR-4 ovarian,> 100 µM
same,TGI,UO-31 renal,55.3 µM
same,TGI,SF-295 CNS,> 100 µM
same,TGI,TK-10 renal,> 100 µM
same,TGI,PC-3 prostate,> 100 µM
same,TGI,SNB-19 CNS,> 100 µM
same,TGI,SK-MEL-2 melanoma,> 100 µM
same,TGI,HS 578T breast,> 100 µM
same,TGI,HCT-116 colon,> 100 µM
same,TGI,786-0 renal,> 100 µM
same,TGI,ACHN renal,> 100 µM
same,TGI,RPMI-8226 leukemia,> 100 µM
same,TGI,M14 melanoma,> 100 µM
same,TGI,HL-60(TB) leukemia,> 100 µM
same,TGI,NCI-H23 lung,> 100 µM
same,TGI,MDA-MB-231 breast,> 100 µM
same,TGI,SN12C renal,> 100 µM
same,TGI,SF-268 CNS,> 100 µM
same,TGI,SF-539 CNS,> 100 µM
same,TGI,SW-620 colon,> 100 µM
same,TGI,LOX IMVI melanoma,> 100 µM
same,TGI,SNB-75 CNS,> 100 µM
NNc1nncc2n[nH]nc12,TGI,HT29 colon,> 100 µM
same,TGI,HOP-62 NSCLC,> 100 µM
same,TGI,K-562 leukemia,> 100 µM
same,TGI,MCF7 breast,> 100 µM
same,TGI,CAKI-1 renal,> 100 µM
same,TGI,SK-MEL-28 melanoma,> 100 µM
same,TGI,UACC-257 melanoma,> 100 µM
same,TGI,IGROV1 ovarian,> 100 µM
same,TGI,U251 CNS,> 100 µM
same,TGI,KM12 colon,> 100 µM
same,TGI,A498 renal,> 100 µM
same,TGI,OVCAR-8 ovarian,> 100 µM
same,TGI,NCI-H226 lung,> 100 µM
same,TGI,RXF 393 renal,> 100 µM
same,TGI,BT-549 breast,> 100 µM
same,TGI,SR leukemia,> 100 µM
same,TGI,OVCAR-3 ovarian,> 100 µM
same,TGI,UACC-62 melanoma,> 100 µM
same,TGI,COLO 205 colon,> 100 µM
same,TGI,MDA-MB-435,> 100 µM
same,TGI,NCI/ADR-RES ovarian,> 100 µM
same,TGI,HCT-15 colon,> 100 µM
same,TGI,MDA-N,> 100 µM
same,TGI,MOLT-4 leukemia,> 100 µM
same,TGI,CCRF-CEM leukemia,> 100 µM
same,TGI,OVCAR-5 ovarian,> 100 µM
same,TGI,NCI-H460 lung,> 100 µM
same,TGI,DU-145 prostate,> 100 µM
same,TGI,T-47D breast,> 100 µM
same,TGI,EKVX NSCLC,> 100 µM
same,TGI,A549 NSCLC,> 100 µM
same,TGI,UO-31 renal,> 100 µM
same,TGI,SF-295 CNS,> 100 µM
same,TGI,TK-10 renal,> 100 µM
same,TGI,PC-3 prostate,> 100 µM
same,TGI,SNB-19 CNS,> 100 µM
same,TGI,SK-MEL-2 melanoma,> 100 µM
same,TGI,HS 578T breast,> 100 µM
same,TGI,HCT-116 colon,> 100 µM
same,TGI,786-0 renal,> 100 µM
same,TGI,ACHN renal,> 100 µM
same,TGI,RPMI-8226 leukemia,> 100 µM
same,TGI,M14 melanoma,> 100 µM
same,TGI,HL-60(TB) leukemia,> 100 µM
same,TGI,NCI-H23 lung,> 100 µM
same,TGI,MDA-MB-231 breast,> 100 µM
same,TGI,SN12C renal,> 100 µM
same,TGI,SF-268 CNS,> 100 µM
same,TGI,SF-539 CNS,> 100 µM
same,TGI,SW-620 colon,> 100 µM
same,TGI,SNB-75 CNS,85.5 µM
